The values that follow are results of earlier work, collected in US20060100214A1, “Fast dissolving and taste masked oral dosage form comprising sildenafil” (priority 2002, published 2006).

For the compound `CCCc1nn(C)c2c(=O)[nH]c(-c3cc(S(=O)(=O)N4CCN(C)CC4)ccc3OCC)nc12.O=C(O)CC(O)(CC(=O)O)C(=O)O` [Sildenafil citrate, 1-[[3-(6,7-dihydro-1-methyl-7-oxo-3-propyl-1H-pyrazolo[4,3-d]pyrimidin-5-yl)-4-ethoxyphenyl]sulfonyl]-4-methylpiperazine citrate], the maximal solubility result (at pH2.0) was “approximately 24 mg/ml”. In the case of `CCCc1nn(C)c2c(=O)[nH]c(-c3cc(S(=O)(=O)N4CCN(C)CC4)ccc3OCC)nc12` [sildenafil free base, 1-[[3-(6,7-dihydro-1-methyl-7-oxo-3-propyl-1H-pyrazolo[4,3-d]pyrimidin-5-yl)-4-ethoxyphenyl]sulfonyl]-4-methylpiperazine], the water solubility entry (as said in US 20020002172A1) is reported as “very low water solubility”.
